Results from patent US8852584B2, “Bactericide having selectivity to cariogenic bacterium, and a method for sterilization of cariogenic bacterium” (Two Cells Co., Ltd., priority 2005, dated 2014).

Assays:
[1] = tested on: S. mutans PMZ175; experiment: bacteriolytic effect, decrease in turbidity with time, various surfactants added to Aml; assay type: cell-based, Streptococcus mutans; settings: Table 3
Method: (§1) The method for measuring the bacteriolytic effect adopted in the present invention is as follows.
(§2) The bacterial strain to be measured its bacteriolytic effect was cultivated overnight, it was washed by physiological saline then suspended into 0.1M phosphate buffer (pH 6.8) containing 0.1M NaCl and 0.1 mM CaCl2. The cell body was treated by ultrasonic generator to disperse the cell body. Thereafter, 500 μg/ml Aml solution dissolved into 30% ethyleneglycol-0.1M sodium phosphate buffer (pH 6.3) and 5 mg/ml surfactant dissolved into distilled water (40 μl) were added into a system consisting of 1 ml of bacterial suspension. 0.1M phosphate buffer solution and 0.1 mM calcium. It was incubated at 37° C., then the turbidity was measured with time, and the bacteriolytic effect was evaluated using the rate of decrease in turbidity as an index.
Using S. mutans PMZ175 (a cariogenic bacterium), the bacteriolytic effect was investigated using experimental systems in which various surfactants were added to Aml (FIG. 3, Table 3). Meanwhile, the food additives investigated in this experiment were glycyrrhizin (0.5%), saponin from quillaya (0.5%), S1670 (0.1%), S1570 (0.05%), P1670 (0.05%), saponin from soybean (0.05%), saponin from yucca (0.05%), and Triton X (0.05%).

[2] = tested on: Streptcoccus mutans 403R; experiment: bacteriolytic effect, decrease in turbidity with time; assay type: cell-based, Streptococcus mutans; settings: for percentage of turbidity (beginning = 100%): Table 1, Aml alone or Aml + 0.05% surfactant
Method: as §1, §2
Using Streptcoccus mutans 403R (dental caries causing bacterium), the bacteriolytic effect was measured with time using an experimental system of Aml alone, and an experimental system of Aml added with P1670 or S1570 at the concentration of 0.05% (Table 1, FIG. 1). In table 1 and FIG. 1, the turbidity of the bacterial solution at the beginning of the experiment was indicated as 100%, and the bacteriolytic effect was represented by the percentage of turbidity at each time point. […] By the way, the control indicates a system in which only a cariogenic bacterium was cultivated.
Using Streptcoccus mutans 403R, the bacteriolytic effect was measured with time on systems in which P1670 or S1570 was added into Aml at various final concentrations (0.05%, 0.025%, 0.001%) (Table 2, FIG. 2).

CC(C)(C)CC(C)(C)c1ccc(OCCO)cc1 [Triton, Triton X]
percentage of turbidity (beginning = 100%) ([1]; Aml + 0.05% surfactant, Time 0): 100.0% | percentage of turbidity (beginning = 100%) ([1]; Aml + 0.05% surfactant, Time 0.25): 93.8% | percentage of turbidity (beginning = 100%) ([1]; Aml + 0.05% surfactant, Time 0.5): 68.6% | percentage of turbidity (beginning = 100%) ([1]; Aml + 0.05% surfactant, Time 1): 10.3% | percentage of turbidity (beginning = 100%) ([1]; Aml + 0.05% surfactant, Time 1.5): −3.4% | percentage of turbidity (beginning = 100%) ([1]; Aml + 0.05% surfactant, Time 2.5): −6.6% | percentage of turbidity (beginning = 100%) ([1]; Aml + 0.05% surfactant, Time 3): −7.1% | percentage of turbidity (beginning = 100%) ([1]; Aml + 0.05% surfactant, Time 3.5): −7.7% | percentage of turbidity (beginning = 100%) ([1]; Aml + 0.05% surfactant, Time 4): −8.8%

CC1(C)[C@@H](O[C@H]2O[C@H](C(=O)O)[C@@H](O)[C@H](O)[C@H]2O[C@@H]2O[C@H](C(=O)O)[C@@H](O)[C@H](O)[C@H]2O)CC[C@]2(C)[C@H]3C(=O)C=C4[C@@H]5C[C@@](C)(C(=O)O)CC[C@]5(C)CC[C@@]4(C)[C@]3(C)CC[C@@H]12 [Glycyrrhizin, glycyrrhizin]
percentage of turbidity (beginning = 100%) ([1]; Aml + 0.5% surfactant, Time 0): 100.0% | percentage of turbidity (beginning = 100%) ([1]; Aml + 0.5% surfactant, Time 0.25): 96.6% | percentage of turbidity (beginning = 100%) ([1]; Aml + 0.5% surfactant, Time 0.5): 93.6% | percentage of turbidity (beginning = 100%) ([1]; Aml + 0.5% surfactant, Time 1): 89.0% | percentage of turbidity (beginning = 100%) ([1]; Aml + 0.5% surfactant, Time 1.5): 81.3% | percentage of turbidity (beginning = 100%) ([1]; Aml + 0.5% surfactant, Time 2.5): 83.7% | percentage of turbidity (beginning = 100%) ([1]; Aml + 0.5% surfactant, Time 3): 80.3% | percentage of turbidity (beginning = 100%) ([1]; Aml + 0.5% surfactant, Time 3.5): 82.3% | percentage of turbidity (beginning = 100%) ([1]; Aml + 0.5% surfactant, Time 4): 77.4%

B1: automutanolysin (protein)
chain: MKSKTYLMIPLALTLFMAANKISADEQNQSLSASEVISSDATSVSELPATTAQISQEVRNNGQDSTIQLQQTQEQSDPITSTSETTVSSMKAATNGSPAKANETETVPSQASTASSVQTPDQILTVPSVKAETTSTADQLQSTSSAPLDQQTDAKRLSNKMTPASSVQARSSLTQDKQVQAQEVTSAVVEEKGIKLQYNGQIARNTKIQFAVWSARNDQDDLQWYTANNMGAAYAEFKNHREYGTYYVHTYANQNGKMIGLNATTLTIAQPQVQTNIQRKSATNFELTVSNVPNTISGIMVPVWSDQNGQDDIKWYNARKADDGSYKVLIDTKNHKNDLGHYEAHIYGYSTVTQSQIGLAVSSGFDRNDTRPNARISVANYDQNKTTFDVVVEGSSDTKTVSAVNIAVWSEDKGQDDLKWYSPKIVDNKATVTINIANHSNTSDKYNVHVYTDYTDGTHSGTILGAYQINKPLEKNTVSADLTSDGIALKLDSNTVTDYTKVRFAVWSDQNGQDDLKWYSANSDGTATAAYSNHSGYGLYHIHTYIIKDGKMVGLNGKTITINQPSAKVDIAKESDALYKVTVSNLPAYISSVVIPVWTDKNNQDDIQWIPATKQGDGTYAAQIQLADHNGETGHYNVHVYGQSKFDNKAVGLAATDGFNVAETRNAVIAASNYNASAGTIDMIVKQEAGGKAIKEVRIAAWSEADQSNLHWYVSSTIIDGKVTVTINEKNHQYIKGNYNIHVYVDYTDGTSSGTNIGNYSLNADKPAVALPSYFIDISSHNGIISVAEFNSLKQQGIQGVVVKLTEGTSYINPYASSQIANARAAGIKVSAYHYAHYTSAAGAQEEARYFANAARSFGLEASTVMVNDMEESSMVNNINNNVQAWQDEMRRQGYSNLIHYTMASWLDIRGGQVDTARFGINNFWVAHYAKGYTYMTQEEAKSLNYYANAAAWQYTSVSSKLSHALDENIDYTGRFTQQ
modifications: Streptococcus mutans
notes: bacterial cell wall lytic enzyme from Streptococcus mutans specific to cariogenic bacterium
percentage of turbidity (beginning = 100%) ([2]; Time 0): 100.0% | percentage of turbidity (beginning = 100%) ([2]; Time 0.25): 93.3% | percentage of turbidity (beginning = 100%) ([2]; Time 0.5): 81.5% | percentage of turbidity (beginning = 100%) ([2]; Time 1): 62.6% | percentage of turbidity (beginning = 100%) ([2]; Time 1.5): 50.8% | percentage of turbidity (beginning = 100%) ([2]; Time 2): 42.2% | percentage of turbidity (beginning = 100%) ([2]; Time 4): 24.6% | time required for the bacteriolysis of 50% of living bacterium (ED50) ([2]; summary, Aml alone): 1.5 h
